# Measured values: US8481544B2, “Antibacterial compositions” (Biota Europe Limited, priority 2006, dated 2013)
# Where two headings read alike, the source gives them in different places.
# Key:
# [1] = system: Mycoplasma hominis MH NCTC 10111; experiment: MIC against Mycoplasma hominis MH NCTC 10111; format: cell-based; settings: Metamycoplasma hominis, NCTC10111; Isolate ID MH NCTC 10111
# [2] = system: Chlamydophila pneumoniae IOL207; experiment: MIC against Chlamydophila pneumoniae IOL207; format: cell-based; settings: Chlamydia pneumoniae; Isolate ID IOL207
# [3] = system: Mycoplasma pneumoniae MP NCTC 10119; experiment: MIC against Mycoplasma pneumoniae MP NCTC 10119; format: cell-based; settings: NCTC10119, Isolate ID MP NCTC 10119
# [4] = system: Streptococcus pneumoniae (MacR) SP 051431; experiment: MIC against Streptococcus pneumoniae (MacR) SP 051431; format: cell-based; settings: Isolate ID SP 051431
# [5] = system: Streptococcus pneumoniae (FQR) SP 25058; experiment: MIC against Streptococcus pneumoniae (FQR) SP 25058; format: cell-based; settings: Isolate ID SP 25058
# [6] = system: Staphylococcus aureus ATCC 29213; experiment: MIC against Staphylococcus aureus ATCC 29213; format: cell-based; settings: ATCC29213
# [7] = system: Legionella pneumophila LP NCTC 11192; experiment: microbe, parasite or virus in culture; format: cell-based; settings: NCTC11192, read-out: MIC (Activity) against Legionella pneumophila
# [8] = system: Streptococcus mutans ATCC 35668; experiment: MIC against Streptococcus mutans ATCC 35668; format: cell-based; settings: ATCC35668
# [9] = system: Streptococcus pneumoniae (FQR) SP 26054; experiment: MIC against Streptococcus pneumoniae (FQR) SP 26054; format: cell-based; settings: Isolate ID SP 26054
# [10] = system: Enterococcus faecalis ATCC 29212; experiment: MIC against Enterococcus faecalis ATCC 29212; format: cell-based; settings: ATCC29212
# Summary of the method: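 MIC measured by broth microdilution or agar dilution following CLSI guidelines (M7-A7 for aerobes, M11-A6 for anaerobes).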
# [11] = system: Haemophilus influenzae ATCC 49247; experiment: MIC against Haemophilus influenzae ATCC 49247; format: cell-based; settings: ATCC49247, Isolate ID ATCC 49247
# [12] = system: Staphylococcus aureus; experiment: mouse Staphylococcus aureus septicaemia model of infection, survival at day 7; format: in vivo
# Description: Some of the Example compounds were also tested for activity in a mouse Staphylococcus aureus septicaemia model of infection.
# [13] = system: Enterococcus faecalis (VRE) ATCC 51299; experiment: MIC against Enterococcus faecalis (VRE) ATCC 51299; format: cell-based
# [14] = system: Staphylococcus haemolyticus ATCC 29970; experiment: MIC against Staphylococcus haemolyticus ATCC 29970; format: cell-based; settings: ATCC29970
# [15] = system: Clostridium perfringens IV306001; experiment: microbe, parasite or virus in culture; format: cell-based; settings: IV306001, read-out: MIC (Activity) against Clostridium perfringens
# [16] = system: Neisseria gonorrhoeae NG ATCC 49226; experiment: MIC against Neisseria gonorrhoeae NG ATCC 49226; format: cell-based; settings: ATCC49226, Isolate ID NG ATCC 49226
# [17] = system: Staphylococcus aureus VRS3; experiment: MIC against Staphylococcus aureus VRS3; format: cell-based; settings: Isolate ID VRS3
# [18] = system: Chlamydia trachomatis T71214; experiment: MIC against Chlamydia trachomatis T71214; format: cell-based; settings: Isolate ID T71214
# [19] = system: Streptococcus pneumoniae ATCC 700671; experiment: MIC against Streptococcus pneumoniae ATCC 700671; format: cell-based; settings: ATCC700671, Isolate ID ATCC 700671
# [20] = system: Escherichia coli N43; experiment: MIC against Escherichia coli N43; format: cell-based; settings: Isolate ID N43
# [21] = system: Staphylococcus epidermidis ATCC 12228; experiment: MIC against Staphylococcus epidermidis ATCC 12228; format: cell-based; settings: ATCC12228
# [22] = system: Clostridium difficile NQS 84; experiment: MIC against Clostridium difficile NQS 84; format: cell-based; settings: Clostridioides difficile, NQS84; Isolate ID NQS 84
# Excerpt: Institute. Methods for Dilution Antimicrobial Susceptibility Tests for Bacteria That Grow Aerobically; Approved Standard—Seventh Edition. Document M7-A7. CLSI, Wayne, Pa., 2006; Clinical Laboratories and Standards Institute. Methods for Antimicrobial Susceptibility Testing of Anaerobic Bacteria; Approved Standard—Sixth Edition. Document M11-A6. CLSI, Wayne, Pa., 2004).
# [23] = system: Propionibacterium acnes ATCC 11821; experiment: MIC against Propionibacterium acnes ATCC 11821; format: cell-based; settings: Cutibacterium acnes, ATCC11821; Isolate ID ATCC 11821
# [24] = system: Moraxella catarrhalis ATCC 25240; experiment: MIC against Moraxella catarrhalis ATCC 25240; format: cell-based; settings: ATCC25240
# [25] = system: Listeria monocytogenes ATCC 19115; experiment: MIC against Listeria monocytogenes ATCC 19115; format: cell-based; settings: ATCC19115, Isolate ID ATCC 19115
# [26] = system: Staphylococcus aureus VRS2; experiment: MIC against Staphylococcus aureus VRS2; format: cell-based; settings: Isolate ID VRS2
# [27] = system: Helicobacter pylori DJF 11; experiment: MIC against Helicobacter pylori DJF 11; format: cell-based; settings: DJF11, Isolate ID DJF 11
# [28] = system: Enterococcus faecium (VRE) ATCC 700221; experiment: MIC against Enterococcus faecium (VRE) ATCC 700221; format: cell-based
# [29] = system: Enterococcus faecium (VSE) ATCC 19434; experiment: MIC against Enterococcus faecium (VSE) ATCC 19434; format: cell-based; settings: ATCC19434
# [30] = system: Lactococcus lactis ATCC 11454; experiment: MIC against Lactococcus lactis ATCC 11454; format: cell-based; settings: ATCC11454, Isolate ID ATCC 11454
# [31] = system: Streptococcus pyogenes ATCC 51339; experiment: MIC against Streptococcus pyogenes ATCC 51339; format: cell-based; settings: ATCC51339
# [32] = system: Mycoplasma hominis MH 10; experiment: MIC against Mycoplasma hominis MH 10; format: cell-based; settings: Metamycoplasma hominis, MH10; Isolate ID MH 10
# [33] = system: Staphylococcus aureus VRS1; experiment: MIC against Staphylococcus aureus VRS1; format: cell-based; settings: Isolate ID VRS1
# [34] = system: Mycoplasma pneumoniae MP 9; experiment: MIC against Mycoplasma pneumoniae MP 9; format: cell-based; settings: MP9, Isolate ID MP 9
# [35] = system: Streptococcus pneumoniae SP 051430; experiment: MIC against Streptococcus pneumoniae SP 051430; format: cell-based; settings: SP051430, Isolate ID SP 051430
# [36] = system: Bacteroides fragilis ATCC 25285; experiment: MIC against Bacteroides fragilis ATCC 25285; format: cell-based; settings: ATCC25285, Isolate ID ATCC 25285
# [37] = system: Streptococcus agalactiae ATCC 13813; experiment: MIC against Streptococcus agalactiae ATCC 13813; format: cell-based; settings: ATCC13813
# [38] = system: Streptococcus pneumoniae ATCC 49619; experiment: MIC against Streptococcus pneumoniae ATCC 49619; format: cell-based; settings: ATCC49619
smiles,measurement,setting,value
"CCNC(=O)Nc1nc2cc(-c3cccnc3)cc(-c3ccccn3)c2s1 [Example 163, 1-Ethyl-3-(5-pyridin-3-yl-7-pyridin-2-yl-benzothiazol-2-yl)-urea]",MIC,[1],0.25 to 1 µg/mL
same,MIC,[2],< 0.25 µg/mL
same,MIC,[3],0.25 to 1 µg/mL
same,MIC,[4],< 0.25 µg/mL
same,MIC,[5],< 0.25 µg/mL
same,MIC,"[6]; Staphylococcus aureus, Isolate ID ATCC 29213, read-out: MIC (Activity) against Staphylococcus aureus",0.25 to 1 µg/mL
same,MIC,[7],0.25 to 1 µg/mL
same,MIC,"[8]; Streptococcus mutans, Isolate ID ATCC 35668, read-out: MIC (Activity) against Streptococcus mutans",< 0.25 µg/mL
same,MIC,[9],< 0.25 µg/mL
same,MIC,"[10]; Enterococcus faecalis ATCC 29212, read-out: MICs against Enterococcus faecalis, Activity",< 0.25 µg/mL
same,MIC,[11],2 to 16 µg/mL
same,Percent survival,"[12]; 1 × 10 mg/kg intraperitoneal, 1 hour after inoculation",60
same,Percent survival,"[12]; 1 × 30 mg/kg intraperitoneal, 1 hour after inoculation",100
same,Percent survival,"[12]; 2 × 30 mg/kg intraperitoneal, 1 and 6 hours after inoculation",100
same,MIC,"[13]; Enterococcus faecalis, Isolate ID ATCC 51299, read-out: MIC (Activity) against Enterococcus faecalis (VRE)",< 0.25 µg/mL
same,MIC,"[14]; Staphylococcus haemolyticus, Isolate ID ATCC 29970, read-out: MIC (Activity) against Staphylococcus haemolyticus",< 0.25 µg/mL
same,MIC,[15],0.25 to 1 µg/mL
same,MIC,[16],0.25 to 1 µg/mL
same,MIC,[17],< 0.25 µg/mL
same,MIC,[18],0.25 to 1 µg/mL
same,MIC,[19],< 0.25 µg/mL
same,MIC,[20],2 to 16 µg/mL
same,MIC,"[21]; Staphylococcus epidermidis, Isolate ID ATCC 12228, read-out: MIC (Activity) against Staphylococcus epidermidis",< 0.25 µg/mL
same,MIC,[22],0.25 to 1 µg/mL
same,MIC,[23],< 0.25 µg/mL
same,MIC,"[24]; Moraxella catarrhalis, Isolate ID ATCC 25240, read-out: MIC (Activity) against Moraxella catarrhalis",< 0.25 µg/mL
same,MIC,[25],< 0.25 µg/mL
same,MIC,[26],< 0.25 µg/mL
same,MIC,[27],< 0.25 µg/mL
same,MIC,"[28]; Enterococcus faecium, Isolate ID ATCC 700221, read-out: MIC (Activity) against Enterococcus faecium (VRE)",< 0.25 µg/mL
same,MIC,"[29]; Enterococcus faecium, Isolate ID ATCC 19434, read-out: MIC (Activity) against Enterococcus faecium (VSE)",0.25 to 1 µg/mL
same,MIC,[30],< 0.25 µg/mL
same,MIC,"[31]; Streptococcus pyogenes, Isolate ID ATCC 51339, read-out: MIC (Activity) against Streptococcus pyogenes",0.25 to 1 µg/mL
same,MIC,[32],0.25 to 1 µg/mL
same,MIC,[33],< 0.25 µg/mL
same,MIC,[34],0.25 to 1 µg/mL
same,MIC,[35],< 0.25 µg/mL
same,MIC,[36],2 to 16 µg/mL
"CCNC(=O)Nc1nc2cc(-c3cccnc3)nc(-c3cccnc3)c2s1 [Example 180, 1-(4,6-Di-pyridin-3-yl-thiazolo[5,4-c]pyridin-2-yl)-3-ethyl-urea]",MIC,"[6]; Staphylococcus aureus ATCC 29213, read-out: MIC Activity",2 to 16 µg/mL
same,MIC,"[8]; Streptococcus mutans ATCC 35668, read-out: MIC Activity",0.25 to 1 µg/mL
same,MIC,"[10]; Enterococcus faecalis, ATCC 29212, Table 5, read-out: MIC against Enterococcus faecalis (Activity)",0.25 to 1 µg/mL
same,MIC,"[13]; Enterococcus faecalis (VRE) ATCC 51299, read-out: MIC Activity",0.25 to 1 µg/mL
same,MIC,"[14]; Staphylococcus haemolyticus ATCC 29970, read-out: MIC Activity",0.25 to 1 µg/mL
same,MIC,"[21]; Staphylococcus epidermidis ATCC 12228, read-out: MIC Activity",0.25 to 1 µg/mL
same,MIC,"[24]; Moraxella catarrhalis ATCC 25240, read-out: MIC Activity",0.25 to 1 µg/mL
same,MIC,"[28]; Enterococcus faecium (VRE) ATCC 700221, read-out: MIC Activity",2 to 16 µg/mL
same,MIC,"[29]; Enterococcus faecium (VSE) ATCC 19434, read-out: MIC Activity",2 to 16 µg/mL
same,MIC,"[31]; Streptococcus pyogenes ATCC 51339, read-out: MIC Activity",2 to 16 µg/mL
same,MIC,[37],0.25 to 1 µg/mL
same,MIC,[38],0.25 to 1 µg/mL
